{"source": "ChEMBL document CHEMBL4308877", "about": "“Thiazole, thio and semicarbazone derivatives against tropical infective diseases: Chagas disease, human African trypanosomiasis (HAT), leishmaniasis, and malaria” (Eur J Med Chem, 2019)", "key": {"Leishmania amazonensis [1]": {"test_system": "Leishmania amazonensis", "assay": "Anti-parasitic activity against promastigote stage of Leishmania amazonensis MHOM/BR/Josefa […] after 72 hrs by Neubauer chamber method", "type": "functional, organism-based"}, "Leishmania amazonensis [2]": {"test_system": "Leishmania amazonensis", "assay": "Anti-parasitic activity against amastigote stage of Leishmania amazonensis MHOM/BR/Josefa infected in BALB/c mouse Peritoneal macrophages after 48 hrs by Giemsa staining-based method", "type": "functional, organism-based"}, "[3]": {"assay": "Selectivity index, ratio of CC50 for mouse J774A1 cells to IC50 for axenic amastigote stage of Leishmania amazonensis MHOM/BR/Josefa", "type": "toxicity", "conditions": "read-out: Ratio CC50/IC50"}, "[4]": {"assay": "Selectivity index, ratio of CC50 for mouse J774A1 cells to IC50 for amastigote stage of Leishmania amazonensis infected in BALB/c mouse Peritoneal macrophages", "type": "toxicity", "conditions": "read-out: Ratio CC50/IC50"}, "Leishmania amazonensis [5]": {"test_system": "Leishmania amazonensis", "assay": "Anti-parasitic activity against axenic amastigote stage of Leishmania amazonensis MHOM/BR/Josefa […] after 72 hrs by Neubauer chamber method", "type": "functional, organism-based"}, "[6]": {"assay": "Selectivity index, ratio of CC50 for mouse J774A1 cells to IC50 for promastigote stage of Leishmania amazonensis MHOM/BR/Josefa", "type": "toxicity", "conditions": "read-out: Ratio CC50/IC50"}, "Trypanosoma cruzi [7]": {"test_system": "Trypanosoma cruzi", "assay": "Anti-parasitic activity against trypomastigote stage of Trypanosoma cruzi Y infected in monkey LLC-MK2 cells after 24 hrs", "type": "functional, organism-based", "conditions": "LLC-MK2, 24 h"}, "[8]": {"assay": "Selectivity index, ratio of cytotoxic activity for monkey LLC-MK2 cells to IC50 for trypomastigote stage of Trypanosoma cruzi Y", "type": "toxicity"}, "Leishmania panamensis": {"test_system": "Leishmania panamensis", "assay": "Anti-parasitic activity against amastigote stage of EGFP-fused Leishmania panamensis MHOM/CO/87/UA140 infected in human U-937 cells after 72 hrs by flow cytometric analysis", "type": "functional, organism-based", "conditions": "MHOM/CO/87/UA140, U-937, 72 h"}, "[9]": {"assay": "Selectivity index, ratio of EC50 for human U-937 cells to IC50 for amastigote stage of EGFP-fused Leishmania panamensis MHOM/CO/87/UA140", "type": "toxicity", "conditions": "read-out: Selectivity Index"}, "[10]": {"assay": "Selectivity index, ratio of CC50 for mouse macrophages to IC50 for amastigote stage of Leishmania amazonensis WHOM/00 LTB 0016", "type": "toxicity", "conditions": "read-out: Ratio CC50/IC50"}, "Leishmania amazonensis [11]": {"test_system": "Leishmania amazonensis", "assay": "Anti-parasitic activity against promastigote stage of Leishmania amazonensis WHOM/00 LTB 0016 after 96 hrs", "type": "functional, organism-based", "conditions": "WHOM/00 LTB 0016, 96 h"}, "[12]": {"assay": "Selectivity index, ratio of CC50 for mouse macrophages to IC50 for promastigote stage of Leishmania amazonensis WHOM/00 LTB 0016", "type": "toxicity", "conditions": "read-out: Ratio CC50/IC50"}, "Leishmania amazonensis [13]": {"test_system": "Leishmania amazonensis", "assay": "Anti-parasitic activity against amastigote stage of Leishmania amazonensis WHOM/00 LTB 0016 infected in mouse macrophages after 24 hrs", "type": "functional, organism-based", "conditions": "WHOM/00 LTB 0016, 24 h"}, "Trypanosoma cruzi [14]": {"test_system": "Trypanosoma cruzi", "assay": "Anti-parasitic activity against amastigote stage of Trypanosoma cruzi Tulahuen CL2 infected in human MRC5 cells after 7 days by […] reporter gene assay", "type": "functional, organism-based", "conditions": "Tulahuen CL2, MRC5, 168 h"}, "[15]": {"assay": "Selectivity index, ratio of cytotoxic activity for African green monkey Vero cells to IC50 for amastigote stage of Trypanosoma cruzi Tulahuen CL2", "type": "toxicity"}, "A549": {"test_system": "A549", "assay": "Cytotoxicity against human A549 cells assessed as reduction in cell viability after 24 hrs by MTT assay", "type": "functional, cell-based", "conditions": "A549, 24 h"}, "C6": {"test_system": "C6", "assay": "Cytotoxicity against rat C6 cells assessed as reduction in cell viability after 24 hrs by MTT assay", "type": "functional, cell-based", "conditions": "C6, 24 h"}, "[16]": {"assay": "Selectivity index, ratio of IC50 for human WI38 cells to IC50 for trypomastigote stage of Trypanosoma brucei brucei", "type": "toxicity", "conditions": "read-out: Ratio IC50"}, "[17]": {"test_system": "Trypanosoma brucei brucei", "assay": "Anti-parasitic activity against trypomastigote stage of Trypanosoma brucei brucei", "type": "functional, organism-based"}, "Trypanosoma cruzi [18]": {"test_system": "Trypanosoma cruzi", "assay": "Anti-parasitic activity against amastigote stage of Trypanosoma cruzi Y infected in monkey LLC-MK2 cells after 96 hrs", "type": "functional, organism-based", "conditions": "LLC-MK2, 96 h"}}, "data": [{"smiles": "CC1=CC[C@@H](C(C)(C)NC(=S)N/N=C/c2ccc([N+](=O)[O-])cc2)CC1", "values": [{"measurement": "IC50", "setting": "Leishmania amazonensis [1]", "result": 3.8, "unit": "µM"}, {"measurement": "IC50", "setting": "Leishmania amazonensis [2]", "result": 7.7, "unit": "µM"}, {"measurement": "selectivity ratio", "setting": "[3]", "result": 11.1}, {"measurement": "selectivity ratio", "setting": "[4]", "result": 11.5}, {"measurement": "IC50", "setting": "Leishmania amazonensis [5]", "result": 8, "unit": "µM"}, {"measurement": "selectivity ratio", "setting": "[6]", "result": 23.4}]}, {"smiles": "CCC1S/C(=N/N=C(/COc2ccccc2)c2ccc(Br)cc2)NC1=O", "note": "(centres undefined)", "values": [{"measurement": "IC50", "setting": "Trypanosoma cruzi [7]", "result": 4, "unit": "µM"}, {"measurement": "selectivity ratio", "setting": "[8]", "result": "> 57.9"}]}, {"smiles": "CCC1S/C(=N/N=C(/COc2ccccc2)c2ccc(-c3ccccc3)cc2)NC1=O", "note": "(centres undefined)", "values": [{"measurement": "IC50", "setting": "Trypanosoma cruzi [7]", "result": 10.8, "unit": "µM"}, {"measurement": "selectivity ratio", "setting": "[8]", "result": "> 21.6"}]}, {"smiles": "O=C(N/N=C1\\CC(c2ccccc2)Sc2ccccc21)c1ccncc1", "note": "(centres undefined)", "values": [{"measurement": "EC50", "setting": "Leishmania panamensis", "result": 16.4, "unit": "µM"}, {"measurement": "selectivity ratio", "setting": "[9]", "result": 33.9}]}, {"smiles": "COc1ccc(/C(COc2ccccc2)=N\\NC(N)=S)cc1", "values": [{"measurement": "selectivity ratio", "setting": "[10]", "result": 4.5}, {"measurement": "IC50", "setting": "Leishmania amazonensis [11]", "result": 3.5, "unit": "µM"}, {"measurement": "selectivity ratio", "setting": "[12]", "result": 44.4}, {"measurement": "IC50", "setting": "Leishmania amazonensis [13]", "result": 34.3, "unit": "µM"}]}, {"smiles": "CCOc1cccc2sc(N(Cc3cccnc3)C(=O)C3CCCCC3)nc12", "values": [{"measurement": "IC50", "setting": "Trypanosoma cruzi [14]", "result": 0.16, "unit": "µM"}, {"measurement": "selectivity ratio", "setting": "[15]", "result": "> 200"}]}, {"smiles": "Cc1c(CO)c(CO)c2n1[C@@H](c1ccccc1)SC2", "values": [{"measurement": "IC50", "setting": "A549", "result": 12, "unit": "µg/mL"}, {"measurement": "IC50", "setting": "C6", "result": 3.83, "unit": "µg/mL"}]}, {"smiles": "CC1=C/C(=N/NC(=S)Nc2ccccc2)C(C(C)C)CC1", "note": "(centres undefined)", "values": [{"measurement": "selectivity ratio", "setting": "[16]", "result": 12.3}, {"measurement": "IC50", "setting": "[17]", "result": 10.9, "unit": "µM"}]}, {"smiles": "N/C(S)=N/N=C/c1ccc([N+](=O)[O-])cc1", "values": [{"measurement": "EC50", "setting": "Trypanosoma cruzi [7]", "result": 1.43, "unit": "µM"}, {"measurement": "IC50", "setting": "Trypanosoma cruzi [18]", "result": 3.23, "unit": "µM"}]}, {"smiles": "NC(=O)N/N=C1\\CC(c2ccccc2)Sc2ccccc21", "note": "(centres undefined)", "values": [{"measurement": "EC50", "setting": "Leishmania panamensis", "result": 5.4, "unit": "µM"}, {"measurement": "selectivity ratio", "setting": "[9]", "result": 18.6}]}, {"smiles": "NC(=S)N/N=C(/COc1ccccc1)c1ccc(Cl)cc1", "values": [{"measurement": "selectivity ratio", "setting": "[10]", "result": 2.77}, {"measurement": "IC50", "setting": "Leishmania amazonensis [11]", "result": 4.9, "unit": "µM"}, {"measurement": "selectivity ratio", "setting": "[12]", "result": 22.8}, {"measurement": "IC50", "setting": "Leishmania amazonensis [13]", "result": 40.3, "unit": "µM"}]}, {"smiles": "NC(=S)N/N=C(/COc1ccccc1)c1ccccc1", "values": [{"measurement": "selectivity ratio", "setting": "[10]", "result": 4.94}, {"measurement": "IC50", "setting": "Leishmania amazonensis [11]", "result": 6, "unit": "µM"}, {"measurement": "selectivity ratio", "setting": "[12]", "result": 71.1}, {"measurement": "IC50", "setting": "Leishmania amazonensis [13]", "result": 33, "unit": "µM"}]}]}
